Measurements as given in patent US20210395313A1, “PEPTIDE PAC1 ANTAGONISTS” (AMGEN INC., priority 2017, published 2021).
Where a SMILES comes first, the peptide text is derived from it. Bridges are numbered along the chain shown (N, C = ends). Where no end group is shown, it is not given here.

What was measured:
rat PAC1 receptor = target: T1, rat PAC1 receptor (Rattus norvegicus, UniProt P32215); test: LANCE Ultra cAMP accumulation antagonist assay in RG-2 cells; format: cell-based;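 also: RG-2 rat glioma cells endogenously expressing PAC1, test peptide preincubated 30 min, then PAC1 agonist added at its EC80 for 15 min, cAMP accumulation read by LANCE Ultra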
T1 construct: SHSY-5Y (human neuroblastoma cell line) and RG-2 (rat glioma cell line) cells endogenously express human and rat PAC1 receptors, respectively; endogenous in cells; host or cells: RG-2 rat glioma cells
T1 sequence (P32215 20-523): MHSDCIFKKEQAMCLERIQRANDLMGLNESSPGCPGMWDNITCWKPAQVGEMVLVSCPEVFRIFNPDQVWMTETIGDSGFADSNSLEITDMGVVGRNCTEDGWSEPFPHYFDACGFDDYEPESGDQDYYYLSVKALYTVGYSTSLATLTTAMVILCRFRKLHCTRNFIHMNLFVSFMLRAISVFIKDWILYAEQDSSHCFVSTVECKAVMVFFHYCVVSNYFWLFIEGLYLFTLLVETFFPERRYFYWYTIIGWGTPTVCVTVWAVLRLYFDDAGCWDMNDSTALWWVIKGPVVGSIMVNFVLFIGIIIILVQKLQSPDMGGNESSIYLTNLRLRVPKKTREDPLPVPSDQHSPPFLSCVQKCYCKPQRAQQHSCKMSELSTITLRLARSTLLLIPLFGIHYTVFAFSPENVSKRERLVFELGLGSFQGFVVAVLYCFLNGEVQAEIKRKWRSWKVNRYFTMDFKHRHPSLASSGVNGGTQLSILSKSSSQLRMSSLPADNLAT

human PAC1 receptor = target: T2, human PAC1 receptor (Homo sapiens, UniProt P41586); test: LANCE Ultra cAMP accumulation antagonist assay in SHSY-5Y cells; format: cell-based;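 also: inhibition of cAMP accumulation evoked by PAC1 agonist at its EC80 in SHSY-5Y cells endogenously expressing receptor, 30 min preincubation then 15 min agonist, TR-FRET readout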
T2 construct: SHSY-5Y (human neuroblastoma cell line) and RG-2 (rat glioma cell line) cells endogenously express human and rat PAC1 receptors, respectively; endogenous in cells; host or cells: SHSY-5Y human neuroblastoma cells
T2 sequence (P41586 21-468): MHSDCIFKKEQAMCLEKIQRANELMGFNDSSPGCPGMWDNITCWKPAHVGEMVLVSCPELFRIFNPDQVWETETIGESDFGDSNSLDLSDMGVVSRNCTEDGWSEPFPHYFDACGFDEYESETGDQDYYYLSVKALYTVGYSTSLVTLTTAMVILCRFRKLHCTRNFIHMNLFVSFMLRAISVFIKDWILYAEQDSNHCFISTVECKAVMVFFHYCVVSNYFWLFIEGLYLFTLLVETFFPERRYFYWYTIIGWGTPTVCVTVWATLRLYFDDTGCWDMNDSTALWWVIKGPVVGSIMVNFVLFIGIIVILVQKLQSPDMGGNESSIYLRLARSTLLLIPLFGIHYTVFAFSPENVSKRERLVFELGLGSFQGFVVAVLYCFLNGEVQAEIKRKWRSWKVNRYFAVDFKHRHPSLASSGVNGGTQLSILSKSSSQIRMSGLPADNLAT
Method: In order to determine the potency of peptide antagonists at the PAC1 receptor, functional cAMP accumulation assays using LANCE Ultra cAMP assay kit to measure the agonist and antagonist activity of PAC1 peptides were used. SHSY-5Y (human neuroblastoma cell line) and RG-2 (rat glioma cell line) cells endogenously express human and rat PAC1 receptors, respectively. Agonist activity of PAC1 peptides was tested by incubating with SHSY-5Y at 2,000 cells per well or RG-2 at 5,000 cells per well for 15 minutes at room temperature. PAC1 receptor agonist PACAP38 or maxadilan was included as a positive control. The reaction was stopped by adding detection mixture, europium (Eu) chelate-labeled cAMP tracer and cAMP-specific monoclonal antibodies labeled with the ULight™ dye, to all wells followed by a 60-minute incubation at room temperature. The assay plates were then read on an EnVision instrument at an emission wavelength of 665 and 615 nm and data were analyzed using Genedata Screener or GraphPad Prism software. A similar procedure was used in the antagonist assays by using a fixed concentration of PAC1 agonist. The concentrations of agonists were chosen based on their ECK) values at PAC1 receptors in SHSY-5Y or RG-2 cells. SHSY-5Y or RG-2 cells were added into 96-well half-area white plates. Serially diluted PAC1 peptides at ten concentrations were added and incubated for 30 minutes at room temperature. PAC1 agonist at EC80 concentration was then added and further incubated for 15 minutes at room temperature. The reaction was stopped by adding detection mixture to all wells followed by a 60-minute incubation at room temperature. The assay plates were read and analyzed the same way as that of agonist assay. Cells, agonists, and PAC1 peptides were prepared in freshly made assay buffer (F-12, 0.5 mM IBMX, 0.1 or 0.4% BSA (pH 7.4)). Detection mixture was made by mixing a 1/50 dilution of the Eu-cAMP tracer stock solution in cAMP Detection Buffer and a 1/150 dilution of the ULight-anti-cAMP stock solution in cAMP Detection Buffer. Europium (Eu) chelate-labeled cAMP tracer, cAMP-specific monoclonal antibodies labeled with the ULight™ dye, BSA, and detection buffer were provided in LANCE Ultra cAMP Kit from PerkinElmer

Molecule | IC50 (rat PAC1 receptor) [nM] | IC50 (human PAC1 receptor) [nM]
CC[C@H](C)[C@H](NC(=O)[C@H](C)NC(=O)[C@H](CCCCN)NC(=O)[C@H](CCCNC(=N)N)NC(=O)[C@H](Cc1ccccc1)NC(=O)[C@H](CCC(N)=O)NC(=O)[C@@H]1CSSC[C@H](N)C(=O)N[C@@H](CC(=O)O)C(=O)N[C@@H](C)C(=O)N[C@@H]([C@@H](C)O)C(=O)N1)C(=O)N[C@@H](CC(=O)O)C(=O)N[C@@H](CC(=O)O)C(=O)N[C@H]1CSSC[C@@H](C(=O)N[C@@H](CCSC)C(=O)N[C@@H](CCCCN)C(=O)N[C@@H](CCC(N)=O)C(=O)N[C@@H](CCCCN)C(=O)N[C@@H](CCCCN)C(=O)N[C@@H](CCCCN)C(=O)N[C@@H](CCC(=O)O)C(=O)N[C@@H](Cc2c[nH]c3ccccc23)C(=O)N[C@@H](CCCCN)C(=O)N[C@@H](C)C(=O)NCC(=O)N[C@@H](Cc2c[nH]cn2)C(=O)O)NC(=O)[C@H](C)NC(=O)[C@H](CCCCN)NC(=O)[C@H](Cc2ccccc2)NC(=O)[C@H](C(C)C)NC(=O)[C@H](CO)NC(=O)[C@H](CO)NC(=O)[C@H](Cc2c[nH]cn2)NC(=O)[C@H](Cc2ccc(O)cc2)NC(=O)[C@H](C)NC(=O)[C@H](CCC(N)=O)NC(=O)[C@H](CCCNC(=N)N)NC(=O)[C@H](C)NC1=O [compound 27] (H-CDATCQFRKAIDDCARQAYHSSVFKACMKQKKKEWKAGH-OH; disulfide 1-5, 14-27) | 0.01 to 1 | 0.01 to 1
CDATCQFRKAIDDCAKASWHSNVPGSVFKSCMKQKKKEWKAGH-NH2 (disulfide 1-5, 14-31) [compound 1] | < 0.01 | 0.01 to 1
CSCC[C@H](NC(=O)[C@@H]1CSSC[C@H](NC(=O)[C@H](C)NC(=O)[C@@H](NC(=O)[C@H](CC(C)C)NC(=O)CNC(=O)[C@H](CCCCN)NC(=O)[C@H](CCCNC(=N)N)NC(=O)[C@H](Cc2ccc(O)cc2)NC(=O)[C@H](CCC(N)=O)NC(=O)[C@@H]2CSSC[C@H](N)C(=O)N[C@@H](CC(=O)O)C(=O)N[C@@H](C)C(=O)N[C@@H]([C@@H](C)O)C(=O)N2)C(C)C)C(=O)N[C@@H](C)C(=O)N[C@@H](CCCNC(=N)N)C(=O)N[C@@H](CCC(N)=O)C(=O)N[C@@H](C)C(=O)N[C@@H](Cc2ccc(O)cc2)C(=O)N[C@@H](Cc2c[nH]cn2)C(=O)N[C@@H](CO)C(=O)N[C@@H](CO)C(=O)N[C@@H](C(C)C)C(=O)N[C@@H](Cc2ccccc2)C(=O)N[C@@H](CCCCN)C(=O)N[C@@H](C)C(=O)N1)C(=O)N[C@@H](CCCCN)C(=O)N[C@@H](CCC(N)=O)C(=O)N[C@@H](CCCCN)C(=O)N[C@@H](CCCCN)C(=O)N[C@@H](CCCCN)C(=O)N[C@@H](CCC(=O)O)C(=O)N[C@@H](Cc1c[nH]c2ccccc12)C(N)=O [compound 5] (H-CDATCQYRKGLVACARQAYHSSVFKACMKQKKKEW-NH2; disulfide 1-5, 14-27) | 1 to 100 | 1 to 100
CDATCQFRKAIDDCVFWAAHSNVPGSVFKACMKQKKKEFKAG-NH2 (disulfide 1-5, 14-31) [compound 136] | 0.01 to 1 | 0.01 to 1
CDATCQFRKAIDDCFYQAWHSNVPGSVWKACMKQKKKEFKAG-NH2 (disulfide 1-5, 14-31) [compound 139] | 0.01 to 1 | 0.01 to 1
CDATCQFRKAIDDCVRQAHHSNVPGSVFKACMKQKKKEWKAG (disulfide 1-5, 14-31) [compound 82] | 0.01 to 1 | 0.01 to 1
CDATCQFRKAIDDCYYRSWHSNVPGSVFKACMKQRKKRWLAG-NH2 (disulfide 1-5, 14-31) [compound 69] | 0.01 to 1 | 0.01 to 1
CDATCQFRKAIDDCYYRSWHSNVPGSVFKACMKQKKKEFKAG (disulfide 1-5, 14-31) [compound 64] | 0.01 to 1 | 1 to 100
CC[C@H](C)[C@H](NC(=O)[C@H](C)NC(=O)[C@H](CCCCN)NC(=O)[C@H](CCCNC(=N)N)NC(=O)[C@H](Cc1ccccc1)NC(=O)[C@H](CCC(N)=O)NC(=O)[C@@H]1CSSC[C@H](N)C(=O)N[C@@H](CC(=O)O)C(=O)N[C@@H](C)C(=O)N[C@@H]([C@@H](C)O)C(=O)N1)C(=O)N[C@@H](CC(=O)O)C(=O)N[C@@H](CC(=O)O)C(=O)N[C@H]1CSSC[C@@H](C(=O)N[C@@H](CCSC)C(=O)N[C@@H](CCCCN)C(=O)N[C@@H](CCC(N)=O)C(=O)N[C@@H](CCCCN)C(=O)N[C@@H](CCCCN)C(=O)N[C@@H](CCCCN)C(=O)N[C@@H](CCC(=O)O)C(=O)N[C@@H](Cc2c[nH]c3ccccc23)C(=O)N[C@@H](CCCCN)C(=O)N[C@@H](C)C(=O)NCC(N)=O)NC(=O)[C@H](C)NC(=O)[C@H](CCCCN)NC(=O)[C@H](Cc2ccccc2)NC(=O)[C@H](C(C)C)NC(=O)[C@H](CO)NC(=O)[C@H](CO)NC(=O)[C@H](Cc2c[nH]cn2)NC(=O)[C@H](Cc2ccc(O)cc2)NC(=O)[C@H](C)NC(=O)[C@H](CCC(N)=O)NC(=O)[C@H](CCCNC(=N)N)NC(=O)[C@H](CC(=O)O)NC1=O [compound 21] (H-CDATCQFRKAIDDCDRQAYHSSVFKACMKQKKKEWKAG-NH2; disulfide 1-5, 14-27) | 0.01 to 1 | 0.01 to 1
CDATCQFRKAIDDCYYRSWHANVPGSVFKACMKQKKKEWKAGN (disulfide 1-5, 14-31) [compound 62] | 0.01 to 1 | 1 to 100
CDATCQFRKAIDDCDRQAHHSNVPGSVFKACMKQKKKEWKAGH (disulfide 1-5, 14-31) [compound 167] | 0.01 to 1 | 0.01 to 1
CDATCQFRKAIDDCYWIAMHSNVPGSVWKACMKQKKKEFKAG-NH2 (disulfide 1-5, 14-31) [compound 147] | 0.01 to 1 | 0.01 to 1
CDATCQFRKAIDDCHLLAWHANVPGSVFKACMKQKKKEFKAG-NH2 (disulfide 1-5, 14-31) [compound 140] | 0.01 to 1 | 0.01 to 1
CDATCQFRKAIDDCYYRSWHSNVPGSVFKACMKQKKKEFKAG-NH2 (disulfide 1-5, 14-31) [compound 149] | 0.01 to 1 | 0.01 to 1
CDATCQFRKAIDDCDRQAHHSNVPGSVFKACMKQKKKEWKANN (disulfide 1-5, 14-31) [compound 154] | 0.01 to 1 | 0.01 to 1
CDATCQFRKAIDDCVKQAHHSNVPGSVFKACMKQKKKEFKAGH (disulfide 1-5, 14-31) [SEQ ID NO 94] | 0.01 to 1 | 0.01 to 1
CDATCQFRKAIDDCLWWSQHSNVPGSVFKACMKQKKKEFKAG-NH2 (disulfide 1-5, 14-31) [compound 117] | 0.01 to 1 | 0.01 to 1
CSCC[C@@H]1NC(=O)[C@H](C)NC(=O)[C@H](C(C)C)NC(=O)[C@H](CCCCN)NC(=O)[C@H](CCCCN)NC(=O)[C@H](Cc2ccc(O)cc2)NC(=O)[C@H](CC(C)C)NC(=O)[C@@H](NC(=O)[C@H](C)NC(=O)[C@@H](NC(=O)[C@H](CC(C)C)NC(=O)CNC(=O)[C@H](CCCCN)NC(=O)[C@H](CCCNC(=N)N)NC(=O)[C@H](Cc2ccc(O)cc2)NC(=O)[C@H](CCC(N)=O)NC(=O)[C@@H]2CSSC[C@H](N)C(=O)N[C@@H](CC(=O)O)C(=O)N[C@@H](C)C(=O)N[C@@H]([C@@H](C)O)C(=O)N2)C(C)C)CSSC[C@@H](C(=O)N[C@@H](CCSC)C(=O)N[C@@H](CCCCN)C(=O)N[C@@H](CCC(N)=O)C(=O)N[C@@H](CCCCN)C(=O)N[C@@H](CCCCN)C(=O)N[C@@H](CCCCN)C(=O)N[C@@H](CCC(=O)O)C(=O)N[C@@H](Cc2c[nH]c3ccccc23)C(N)=O)NC(=O)[C@H](C)NC(=O)[C@H](CCCCN)NC(=O)[C@H](Cc2ccccc2)NC(=O)[C@H](C(C)C)NC(=O)[C@H](CO)NC(=O)[C@H](Cc2ccc(O)cc2)NC(=O)[C@H](CCCNC(=N)N)NC(=O)[C@H](CCCCN)NC(=O)[C@H](CCC(N)=O)NC1=O [compound 427] (H-CDATCQYRKGLVACLYKKVAMQKRYSVFKACMKQKKKEW-NH2; disulfide 1-5, 14-31) | 1 to 100 | 1 to 100
CDATCQFRKAIDDCDRQAHHSNVPGSVFKACMKQKKKEFKAG-NH2 (disulfide 1-5, 14-31) [compound 168] | 0.01 to 1 | 0.01 to 1
CDATCQYRKGLVACLYKKVAMQKRYSVFKACMKQKKKEFKAG-NH2 (disulfide 1-5, 14-31) [compound 46] | 0.01 to 1 | 1 to 100
CDATCQFRKAIDDCMLFSWHSNVPGSVFKACMKQKKKEFKAG-NH2 (disulfide 1-5, 14-31) [compound 131] | 0.01 to 1 | 0.01 to 1
CDATCQFRKAIDDCYYRSHHSNVPGSVFKACMKQKKKEFKAG-NH2 (disulfide 1-5, 14-31) [compound 45] | 0.01 to 1 | 0.01 to 1
CDATCQFRKAIDDCDRQAHHSNVPGSVFKACMKQKKKEWKAN (disulfide 1-5, 14-31) [compound 159] | 0.01 to 1 | 1 to 100
CDATCQFRKAIDDCAKQAHHSNVPGSVFKLCMKQKKKEFKAG-NH2 (disulfide 1-5, 14-31) [compound 18] | < 0.01 | 0.01 to 1
